# In US10059663B2, “Aromatic compound and use thereof” (Kyoto Pharmaceutical Industries, Ltd., priority 2013, dated 2018):
# Test system: Mouse bone marrow-derived mesenchymal cell line ST2 cells
# Assay: Osteoblast differentiation test (alkaline phosphatase activity)
# Assay type: cell-based
# Settings: ST-2, 96 h, at 0.1 μg/mL, 4 days of culture, absorbance at 405 nm, DMSO control = 100%, read-out: alkaline phosphatase activity (increase rate in absorbance, control as 100%)
# Protocol: Mouse bone marrow-derived mesenchymal cell line ST2 cells (source of supply: RIKEN) were seeded in α-MEM medium containing 10% fetal bovine serum (source of supply: GIBCO BRL Cat. No. 12000-022) in a 96 well plate at a cell density of 4×10^3 cells/0.1 mL/well, and cultured for 24 hr under the conditions of 37° C., 5% CO2. Then, each test compound was added at a final concentration of 0.001-10 μM, and the final concentration 0.1% (v/v) of DMSO was added to the control. After 4 days of culture, alkaline phosphatase (ALP) activity was measured by the following method.
# The medium in the cultured 96 well plate was removed, the cells were washed with PBS buffer (KCl 0.2 g/L, KH2PO4 0.2 g/L, Na2HPO4.12H2O 2.9 g/L, NaCl 8 g/L) (100 μL/well), cell lysate (10 mM MgCl2, 2% (v/v) Triton X-100) (50 μL/well) was added, and the mixture was stirred at room temperature for 3 min. A substrate solution (50 mM diethanolamine (Wako Pure Chemical Industries, Ltd. Cat. No. 099-03112), 20 mM […] (Nacalai Tesque Cat. No. 25019-81)) (50 μL/well) was added, and the mixture was left standing at room temperature for 9 min. 1N NaOH 50 μL/well was added to discontinue the reaction, and the absorbance at 405 nm was measured by a microplate reader (Dainippon Pharmaceutical Co., Ltd.)
# An increase rate (%) in the absorbance by the test compound was calculated based on the absorbance of the control as 100%, and the differentiation degree of the osteoblast was evaluated.
row,Compound,activity at 0.1 µg/mL [%]
1,"COc1cc(Nc2ccc(N3CC(OCCO)C3)cc2)c([N+](=O)[O-])cc1F [Example 2, 2-{1-[4-(4-fluoro-5-methoxy-2-nitrophenylamino)phenyl]azetidin-3-yloxy}ethanol]",≥ 200
2,"NC(=O)c1ccc([N+](=O)[O-])c(Nc2ccc(N3CC(OCCO)C3)cc2)c1 [Example 5, 3-{4-[3-(2-hydroxyethoxy)azetidin-1-yl]phenylamino}-4-nitrobenzamide]",≥ 200
3,"CC(=O)c1ccc(C(N)=O)cc1Nc1ccc(N2CC(OCCO)C2)cc1 [Example 6, 4-acetyl-3-{4-[3-(2-hydroxyethoxy)azetidin-1-yl]phenylamino}benzamide]",≥ 200
4,"COc1cc(Nc2ccc(N3CC(N4CCC(CO)CC4)C3)cc2)c(NC(C)=O)cn1 [Example 8, N-(4-{4-[3-(4-hydroxymethylpiperidin-1-yl)azetidin-1-yl]phenylamino}-6-methoxypyridin-3-yl)acetamide]",≥ 200
5,"COc1cc(Nc2ccc(N3CC(N4CCOCC4)C3)cc2)c(NC(C)=O)cn1 [Example 9, N-{6-methoxy-4-[4-(3-morpholin-4-ylazetidin-1-yl)phenylamino]pyridin-3-yl}acetamide]",≥ 200
6,"COc1cc(Nc2ccc(N3CCN(CC(C)(C)C(=O)O)CC3)cc2)c([N+](=O)[O-])cc1F [Example 13, 3-{4-[4-(4-fluoro-5-methoxy-2-nitrophenylamino)phenyl]piperazin-1-yl}-2,2-dimethylpropionic acid]",≥ 200
7,"COc1cc(Nc2ccc(N3CC(OCCNS(N)(=O)=O)C3)cc2)c(NC(C)=O)cn1 [Example 16, N-(4-{4-[3-(2-sulfamoylaminoethoxy)azetidin-1-yl]phenylamino}-6-methoxypyridin-3-yl)acetamide]",≥ 200
8,"CC(=O)c1ccc(C(N)=O)cc1Nc1ccc(OCCOC2CCOCC2)cc1 [Example 17, 4-acetyl-3-{4-[2-(tetrahydropyran-4-yloxy)ethoxy]phenylamino}benzamide]",≥ 200
9,"CC(F)(F)c1ccc(C(N)=O)cc1Nc1ccc(OCCOC2CCOCC2)cc1 [Example 18, 4-(1,1-difluoroethyl)-3-{4-[2-(tetrahydropyran-4-yloxy)ethoxy]phenylamino}benzamide]",≥ 200
10,"CC(=O)c1ccc(C(N)=O)cc1Nc1ccc(OCCOC2CCS(=O)(=O)CC2)cc1 [Example 20, 4-acetyl-3-{4-[2-(1,1-dioxohexahydro-1λ^6-thiopyran-4-yloxy)ethoxy]phenylamino}benzamide]",≥ 200
11,"CC(=O)c1ccc(C(N)=O)cc1Oc1ccc(N2CC(OCCO)C2)cc1 [Example 28, 4-acetyl-3-{4-[3-(2-hydroxyethoxy)azetidin-1-yl]phenoxy}benzamide]",≥ 200
12,"CC(=O)c1ccc(C(N)=O)c(Oc2ccc(N3CC(OCCO)C3)cc2)c1 [Example 29, 4-acetyl-2-{4-[3-(2-hydroxyethoxy)azetidin-1-yl]phenoxy}benzamide]",≥ 200
13,"CC(=O)c1ccc(C(N)=O)cc1Oc1ccc(N2CCC(OCCO)CC2)cc1 [Example 30, 4-acetyl-3-{4-[4-(2-hydroxyethoxy)piperidin-1-yl]phenoxy}benzamide]",≥ 200
14,"CC(=O)c1ccc(C(N)=O)cc1Oc1ccc(OCCOCCOC(C)C)cc1 [Example 33, 4-acetyl-3-{4-[2-(2-isopropoxyethoxy)ethoxy]phenoxy}benzamide]",≥ 200
15,"CC(=O)c1ccc(C(N)=O)cc1Oc1ccc(/C=C/COC2CCOCC2)cc1 [Example 34, 4-acetyl-3-{4-[3-(tetrahydropyran-4-yloxy)propenyl]phenoxy}benzamide]",≥ 200
16,"NC(=O)c1ccc(C(F)F)c(Oc2ccc(OCCOC3CCOCC3)cc2)c1 [Example 35, 4-difluoromethyl-3-{4-[2-(tetrahydropyran-4-yloxy)ethoxy]phenoxy}benzamide]",≥ 200
17,"CC(F)c1ccc(C(N)=O)cc1Oc1ccc(OCCOC2CCOCC2)cc1 (centres unmarked) [Example 39, 4-(1-fluoroethyl)-3-{4-[2-(tetrahydropyran-4-yloxy)ethoxy]phenoxy}benzamide]",≥ 200
